In patent US20210128740A1, “HDAC INHIBITORS-BASED ANTIBODY DRUG CONJUGATES (ADCs) AND USE IN THERAPY” (ALFASIGMA S.P.A., priority 2017, published 2021):

Key:
Design in all cases: species or system mice
[1] = system: NCI-H1975 non-small cell lung carcinoma; test: In vivo antitumor effect against s.c. NCI-H1975 non-small cell lung cancer; conditions: 120 mg/kg, ip, q4dx4
Procedure: Nude Nu/Nu female mice (from Charles River, Italy) were given a single subcutaneous injection of 5×10^6 NCI-H1975 non-small cell lung carcinoma cells suspended in 100 μL cell culture medium RPMI supplemented with 10% FBS. […] Vehicle group was treated by PBS. Tumor growth was measured with a caliper and tumor volume was calculated using the formula length (mm)×width 2 (mm)/2. The tumor inhibition was calculated according to the equation: % TVI=100−(mean tumor volume of treated group/mean tumor volume of control group)×100. Toxicity was evaluated on the basis of the body weight reduction.
Animals were euthanized by CO2 inhalation when the tumors reached a volume around 1200 mm^3.

[2] = system: A549 non-small cell lung carcinoma; test: In vivo antitumor effect of combination of Cetuximab with ST7612AA1 vs ADC against s.c. A549 lung cancer (Example 31)
Procedure: The human A549 lung carcinoma cells were cultured in their appropriate complete medium. On the day of tumor injection, cells were harvested from subconfluent cultures by trypsinization, washed with PBS, suspended in PBS and subcutaneously injected into the right flank of immunodeficient mice (5×10^6/100 μL). Treatments started when tumor size was around 80 mm^3 and mice were randomized into the experimental groups (10 mice/group): […]

[3] = system: CAPAN-1 orthotopic pancreatic tumor; test: In vivo antitumor effect against orthotopic CAPAN-1 pancreas cancer; conditions: 200 mg/kg, ip, q4dx4
Description: Capan-1 (1×10^6) cells were directly injected into pancreas of experimental groups.

CC(=O)SCCCCC[C@H](NC(=O)[C@H]1CCC(=O)N1)C(=O)Nc1ccccc1 [ST7612AA1]
Antitumor activity [1]: completely inactive | Antitumor activity ([2]; 0.1 mg/kg, ip, q4dx4): not effective | TVI at day 50 ([2]; 0.1 mg/kg, ip, q4dx4): 0, P = 0.95 | TVI at day 56 ([2]; 0.1 mg/kg, ip, q4dx4): 0, P = 0.88 | TVI at day 50 ([2]; 40 mg/kg, po, qdx5/wx3w): 33, P = 0.007 | TVI at day 56 ([2]; 40 mg/kg, po, qdx5/wx3w): 35, P = 0.0009 | Tumor growth inhibition [3]: 32%
